Measured values: US10087448B2, “Synthetic lethality in cancer” (The Governors of the University of Alberta, priority 2010, dated 2018)
Entries after “also recorded” stand apart in the source; their conditions may differ.

What was measured:
[1] = tested on: Karpas 299 cells (naturally SHP-1−/−); assay: Cell proliferation assay with ALCL cell lines (Alamar Blue), PNKP inhibition; format: cell-based; conditions: Karpas 299 (SHP-1−/−), approximately 10 μM, 12-16 days
Experimental: (§1) Karpas 299 or SUPM2 cells were plated in 96-well format at a concentration of 5,000 cells/100 μL in complete RPMI. Increasing concentrations of the PNKP inhibitor A12B4C3 was added to each well at a constant concentration of DMSO and left to incubate for 12-16 days. 11 μL of 440 μM Alamar Blue was then loaded onto the plates and left to incubate for 24-48 hours after which fluorescence was determined as described above.

[2] = tested on: SUPM2 cells (naturally SHP-1+/+); assay: as above; format: cell-based; conditions: SUPM2 (SHP-1+/+), approximately 10 μM, 12-16 days
Experimental: as §1

[3] = tested on: HCT116 PTEN deleted cells (#22 and #35); assay: Colony forming assay under PNKP inhibition; format: cell-based; conditions: PTEN deleted HCT116, increasing concentrations
Experimental: (§2) The effect of survival of simultaneous disruption of two proteins was conducted using the clonogenic survival assay. To allow cells time to adhere to the plates, cells were seeded 24 h in advance. Cells were treated with the PNKP inhibitor A12B4C3 for 9-14 consecutive days in triplicate at 0 μM, 0.1 μM, 1 μM, and 10 μM final concentration where 100 cells were plated for the 0 μM, 0.1 μM and 1 μM concentration groups and 300 cells in the 10 μM concentration group. Colonies were then stained with a crystal violet containing 20% methanol for one hour after which the plates were washed in warm water and left to dry overnight. Colonies of 50+ cells were then counted using an automated colony counter (Oxford Optronix, Oxford, UK).

[4] = tested on: HCT116 PTEN wildtype cells (HCT116 parental and Neo124 vector only); assay: Colony forming assay under PNKP inhibition; format: cell-based; conditions: PTEN proficient HCT116, increasing concentrations
Experimental: as §2

[5] = tested on: HCT116 cells; assay: Colony-forming assay with γ-radiation (synthetic sickness); format: cell-based
Experimental: as §2
For the indicated colony-forming assays, cells were treated with 0, 1, 2, 4, 6, or 8 Gy of γ-radiation (^60Co Gammacell; Atomic Energy of Canada Limited, Ottawa, Canada).
These HCT116 cells were then subjected to additional testing to determine if disruption of PNKP in PTEN negative cells would hypersensitize these cells to ionizing radiation. These assays to determine ‘synthetic sickness’ were done using […] A12B4C3, which was added to the cells 24 h before irradiation in a colony-forming assay. After one day the cells were subjected to 0, 1, 2, 4, 6, or 8 Gy of γ-radiation. […]

[6] = tested on: PC3 cell lines lacking functional PTEN (p.R55fs*1, WT RAD51, p.BABE.puro, p.C124S, PC3 parental); assay: Survival of PC3 cells in response to PNKP inhibition; format: cell-based; conditions: doses ≥10 μM, 12-16 days
Experimental: as §2
(§3) To investigate the feasibility of taking advantage of the newly identified partnership between PTEN and PNKP, we subjected the prostate cancer cell line, PC3 (naturally PTEN^−/−) to an increasing concentration of the PNKP inhibitor A12B4C3 (3) over a period of 12-16 days.

[7] = tested on: PC3 cells reconstituted with WT PTEN or p.K289E; assay: as above; format: cell-based; conditions: WT PTEN and p.K289E reconstituted PC3, 12-16 days
Experimental: as §2, §3

[8] = tested on: A549(Scramble) and A549δPNKP cells; assay: Mode of cell death determination (Hoescht 33342, Ethidium Homodimer III, Annexin V-FITC triple stain); format: cell-based, human; conditions: 100 μM, 24 to 72 hours
Experimental: A549(Scramble) or A549δPNKP cells were grown on coverslips in complete DMEM/F12 and were either transfected with ASN or SHP-1. Another control subjected these cell lines to 100 μM 5-(p-Bromobenzylidine)-α-isopropyl-4-oxo-2-thioxo-3-thiozolidineacetic acid (BH3I-1, Sigma-Aldrich, Oakville, ON), which is a known apoptosis inducer. The cells were grown under each condition for the indicated length of time before being subjected to a triple stain of Hoescht 33342, Ethidium Homodimer III and Annexin V-FITC (Biotium, Hayward, Calif.). Hoescht 33342 is an uncharged DNA stain that will stain the nuclei of healthy and non-healthy cells alike, however, Ethidium Homodimer III is a highly positively charged DNA stain that cannot readily enter cells unless there is a loss of membrane integrity. […]
To identify the mechanism in which cells undergo synthetic lethality upon simultaneous disruption of SHP-1 and PNKP, A549(Scramble) and A549δPNKP cells were grown on coverslips and transiently transfected with ASN or SHP-1 siRNA (FIGS. 21A and 21C, respectively). […] Cells were then simultaneously stained with Hoescht 33342, EthidiumHomodimer III and Annexin V-FITC, which fluoresce at different wavelengths (absorbance/emission; 350/461 nm, 528/617 nm, and 492/514 nm, respectively). […]

Row | SMILES | survival [1] | survival [2] | survival under PNKP inhibition [3] | survival under PNKP inhibition [4] | sensitivity to ionizing radiation ([5]; PNKP independently disrupted (PTEN proficient HCT116), 2 M A12B4C3 added 24 h before 0-8 Gy γ-radiation) | sensitivity to ionizing radiation ([5]; PTEN negative HCT116, 2 M A12B4C3 added 24 h before 0-8 Gy γ-radiation) | survival [6] | survival [7] | apoptotic cells [8]
1 | CCCCCCCCCCC(O)C1C=CC2C(=O)N(c3ccccc3)C(=O)C2N1Nc1ccc([N+](=O)[O-])cc1 (stereo not drawn) [A12B4C3, 2-(1-hydroxyundecyl)-1-(4-nitrophenylamino)-6-phenyl-6,7a-dihydro-1H-pyrrolo[3,4-b]pyridine-5,7(2H,4aH)-dione] | marked decrease in survival | remain viable | sensitive to PNKP disruption | no effect | increase in sensitivity to ionizing radiation | increase in the sensitivity to ionizing radiation | marked decrease in survival | lethality under PNKP inhibition was rescued | 
2 | CC(C)C(C(=O)O)N1C(=O)C(=Cc2ccc(Br)cc2)SC1=S (stereo not drawn) [BH3I-1, 5-(p-Bromobenzylidine)-α-isopropyl-4-oxo-2-thioxo-3-thiozolidineacetic acid] |  |  |  |  |  |  |  |  | substantial increase in the occurrence of apoptotic cells; also recorded: increase in apoptotic cells beginning at 24 hours and continuing on through 72 hours
